Data from patent US10702486B2, “Treatment of CNS disorders with trans 4-(3,4-dichlorophenyl)-1,2,3,4-tetrahydro-1-naphthalenamine” (SUNOVION PHARMACEUTICALS INC., priority 2002, dated 2020).
Where “and” joins values, the source holds several entries; their conditions need not be identical. Equal entries are not always repeated. Where two headings read alike, the source gives them in different places.

Columns and labels:
[1] = biological target: T1, functional uptake of serotonin (5-HT) (Rattus norvegicus, UniProt P31652); assay: Serotonin functional uptake assay in rat synaptosomes; format: biochemical; conditions: for inhibition at 10 µM: tested initially at 10 μM in duplicate
T1 construct: synaptosomes isolated in a 0.32M sucrose buffer from a male Wistar rat cortex; from tissue
T1 sequence (P31652 whole entry): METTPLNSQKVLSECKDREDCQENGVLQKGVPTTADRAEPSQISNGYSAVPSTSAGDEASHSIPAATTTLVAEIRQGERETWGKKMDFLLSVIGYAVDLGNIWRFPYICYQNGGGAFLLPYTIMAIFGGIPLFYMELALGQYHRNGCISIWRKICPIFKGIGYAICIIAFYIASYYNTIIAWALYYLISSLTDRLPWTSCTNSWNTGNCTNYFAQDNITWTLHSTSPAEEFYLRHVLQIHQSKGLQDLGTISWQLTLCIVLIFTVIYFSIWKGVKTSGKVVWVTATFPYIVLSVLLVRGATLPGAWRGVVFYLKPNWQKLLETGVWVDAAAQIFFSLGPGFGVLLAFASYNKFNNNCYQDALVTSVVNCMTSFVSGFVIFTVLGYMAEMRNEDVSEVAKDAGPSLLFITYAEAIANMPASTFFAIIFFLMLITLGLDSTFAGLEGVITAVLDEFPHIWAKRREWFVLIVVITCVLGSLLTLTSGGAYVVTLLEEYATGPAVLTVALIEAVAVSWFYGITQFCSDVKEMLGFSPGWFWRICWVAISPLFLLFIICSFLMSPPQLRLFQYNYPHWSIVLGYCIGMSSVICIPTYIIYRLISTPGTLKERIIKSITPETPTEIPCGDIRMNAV
Experimental: (§1) The compounds of the invention were tested for their inhibition of functional uptake of serotonin (5-HT), norepinephrine (NE), or dopamine (DA), in synaptosomes prepared from rat whole brain, hypothalamus, or corpus striatum, respectively.
Serotonin Functional Uptake Assay
Characterization of serotonin uptake is performed using synaptosomes isolated in a 0.32M sucrose buffer from a male Wistar rat cortex. The uptake of radiolabelled serotonin by synaptosomes (100 μg of proteins/point) is allowed by incubating them in a deep well for 15 min at 37° C. in presence of test compounds and [^3H]5-hydroxytryptamine (0.1 μCi/point).
Synaptosomes and [^3H]5-hydroxytryptamine are prepared in a Krebs buffer pH 7.4 containing 25 mM NaHCO3, 11 mM glucose and 50 μM ascorbic acid. This incubation buffer is oxygenated during 5 minutes before incubation. Basal control is incubated for 15 minutes at 4° C. in order to avoid any uptake. Following this incubation the uptake is stopped by filtration through an “unifilter 96-wells GFB Packard plate” washed with Krebs buffer containing 25 mM NaHCO3 in order to eliminate the free [^3H]5-hydroxytryptamine. The radioactivity associated to the synaptosomes retained onto the unifilter corresponding to the uptake is then measured with a microplate scintillation counter Topcount, Packard using a scintillation liquid microscint 0, Packard.

[2] = biological target: T2, functional uptake of dopamine (DA) (Rattus norvegicus, UniProt P23977); assay: Dopamine functional uptake assay in rat striatum synaptosomes; format: biochemical; conditions: for IC50: rat striatum synaptosomes, [3H]-dopamine, 15 minutes at 37° C.; for inhibition at 10 µM: tested initially at 10 μM in duplicate, read-out: inhibition of DA uptake (no IC50), Table 1
T2 construct: synaptosomes isolated at Cerep in a 0.32 M sucrose buffer from a male Wistar rat striatum; tissue Cerep; host or cells: male Wistar rat striatum synaptosomes
T2 sequence (P23977 whole entry): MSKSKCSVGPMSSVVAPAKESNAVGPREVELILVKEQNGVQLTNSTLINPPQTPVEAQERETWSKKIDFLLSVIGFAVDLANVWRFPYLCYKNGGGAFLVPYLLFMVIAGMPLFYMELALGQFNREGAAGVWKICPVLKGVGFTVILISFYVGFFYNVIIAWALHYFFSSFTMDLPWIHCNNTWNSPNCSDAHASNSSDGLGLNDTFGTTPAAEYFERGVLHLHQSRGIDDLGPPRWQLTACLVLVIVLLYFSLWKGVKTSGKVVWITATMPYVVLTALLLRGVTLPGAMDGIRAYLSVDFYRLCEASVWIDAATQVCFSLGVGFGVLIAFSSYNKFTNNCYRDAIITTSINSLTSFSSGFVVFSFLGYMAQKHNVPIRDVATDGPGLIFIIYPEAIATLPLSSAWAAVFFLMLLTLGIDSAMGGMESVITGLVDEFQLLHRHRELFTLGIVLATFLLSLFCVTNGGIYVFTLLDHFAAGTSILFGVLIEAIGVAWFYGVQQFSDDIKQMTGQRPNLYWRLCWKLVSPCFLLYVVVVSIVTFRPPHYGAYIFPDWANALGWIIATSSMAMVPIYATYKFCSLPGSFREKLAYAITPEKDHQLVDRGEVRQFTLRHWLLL
Experimental: Dopamine Functional Uptake Assay
Characterization of dopamine uptake is performed using synaptosomes isolated at Cerep in a 0.32 M sucrose buffer from a male Wistar rat striatum. The uptake of radiolabelled dopamine by synaptosomes (20 μg of proteins/point) is allowed by incubating them for 15 minutes at 37° C. in presence of test compounds and [^3H]-dopamine (0.1 μCi/point). The experiment is performed in a deep well. Synaptosomes and [^3H]-dopamine are prepared in a Krebs buffer pH 7.4 containing 25 mM NaHCO3, 11 mM glucose and 50 μM ascorbic acid. This incubation buffer is oxygenated during 5 minutes before incubation. Basal control is incubated for 15 minutes at 4° C. in order to avoid any uptake. Following this incubation the uptake is stopped by filtration through an “unifilter 96-wells GFB Packard plate” washed with Krebs buffer containing 25 mM NaHCO3 in order to eliminate free [^3H]-dopamine. The radioactivity associated to the synaptosomes retained onto the unifilter corresponding to the uptake is then measured with a microplate scintillation counter Topcount, Packard using a scintillation liquid microscint 0, Packard.

[3] = biological target: functional uptake of norepinephrine (NE) (Rattus norvegicus, UniProt Q9WTR4); assay: Norepinephrine functional uptake assay in rat hypothalamus synaptosomes; format: biochemical; conditions: [3H]-norepinephrine, 20 minutes at 37° C.
Experimental: as §1
Norepinephrine Functional Uptake Assay
Characterization of norepinephrine uptake is performed using synaptosomes isolated at Cerep in a 0.32 M sucrose buffer from a male Wistar rat hypothalamus. The uptake of radiolabeled norepinephrine by synaptosomes (100 μg of proteins/point) is allowed by incubating them for 20 minutes at 37° C. in presence of test compounds and [^3H]-norepinephrine (0.1 μCi/point). The experiment is performed in a deep well.
Synaptosomes and [^3H]-norepinephrine are prepared in a Krebs buffer pH 7.4 containing 25 mM NaHCO3, 11 mM glucose and 50 μM ascorbic acid. This incubation buffer is oxygenated during 5 minutes before incubation. Basal control is incubated for 20 minutes at 4° C. in order to avoid any uptake. Following this incubation the uptake is stopped by filtration through an “unifilter 96-wells GFB “Packard plate washed with Krebs buffer containing 25 mM NaHCO3 in order to eliminate the free [^3H]-norepinephrine. The radioactivity associated to the synaptosomes retained onto the unifilter corresponding to the uptake is then measured with a microplate scintillation counter Topcount, Packard using a scintillation liquid microscint 0, Packard.

[4] = Behavioral Despair Test in Mice; format: in vivo; design: key to Dunnett, significance vs vehicle: * indicates a significant difference vs vehicle for P < 0.05 (Dunnett test)
[5] = Hamelin et al. 1996; Serebruany et al. 2001; cited from earlier work
[6] = 10 mg/kg, N = 10, E intraperitoneal
[7] = 50 mg/kg intraperitoneal, N = 10

## O=CN[C@@H]1CC[C@@H](c2ccc(Cl)c(Cl)c2)c2ccccc21 (racemic) [F, N-[4-(3,4-dichlorophenyl)-1,2,3,4-tetrahydronaphthalen-1-yl]formamide]
[1]; read-out: inhibition of 5-HT uptake (no IC50), Table 3
  inhibition at 10 µM: < 50%
[2]
  IC50: 0.53 µM
[3]
  IC50: 3.9 µM

## N[C@@H]1CC[C@@H](c2ccc(Cl)c(Cl)c2)c2ccccc21 (racemic) [P + Q, trans-4-(3,4-dichlorophenyl)-1,2,3,4-tetrahydro-1-naphthalenamine]
[2]
  IC50: 0.0071 µM
[3]
  IC50: 0.0088 µM

## O=CN[C@@H]1CC[C@@H](c2ccc(Cl)c(Cl)c2)c2ccccc21 [E, (R,S/S,R) N-[4-(3,4-dichlorophenyl)-1,2,3,4-tetrahydronaphthalen-1-yl]formamide]
[1]; rat synaptosomes, [3H]5-hydroxytryptamine, 15 min at 37° C.
  IC50: 7.5 µM
[2]
  IC50: 0.51 µM
[4]; 10 mg/kg, N = 10
  Dunnett, significance vs vehicle: *
[4]; [6]
  Immobility Duration (sec.), individual mice: 59 s and 162 s and 131 s and 22 s and 167 s and 58 s and 135 s and 122 s and 164 s and 50 s
  Immobility Duration, Mean ± sem: 107 s
[4]; [7]
  Immobility Duration (sec.), individual mice: 15 sec. (2×) and 0 sec. (3×) and 98 sec. and 34 sec. and 59 sec. and 25 sec. and 63 sec.
  Immobility Duration, Mean ± sem: 31 s
[4]; 50 mg/kg, N = 10
  Dunnett, significance vs vehicle: *
[3]
  IC50: 0.4 µM

## Fc1ccc(C(OCCN2CCN(CCCc3ccccc3)CC2)c2ccc(F)cc2)cc1 [GBR 12909, reference compound]
[1]; read-out: inhibition of 5-HT uptake (no IC50), Table 1
  inhibition at 10 µM: < 50%

## N[C@@H]1CC[C@@H](c2ccc(Cl)c(Cl)c2)c2ccccc21 [P, (1R,4S)-trans 4-(3,4-dichlorophenyl)-1,2,3,4-tetrahydro-1-naphthalenamine]
[3]
  IC50: 0.0096 µM

## N[C@H]1CC[C@H](c2ccc(Cl)c(Cl)c2)c2ccccc21 [Q, (1S,4R)-trans 4-(3,4-dichlorophenyl)-1,2,3,4-tetrahydro-1-naphthalenamine]
[3]
  IC50: 0.035 µM

## CC(NC(C)(C)C)C(=O)c1cccc(Cl)c1 (stereo not drawn) [bupropion, reference compound]
[3]
  IC50: 0.611 µM

## CN(C)CCCN1c2ccccc2CCc2ccccc21 [imipramine, reference compound]
[2]
  inhibition at 10 µM: < 50%
[4]; 10 mg/kg, N = 10
  Dunnett, significance vs vehicle: *
[4]; [6]
  Immobility Duration (sec.), individual mice: 28 sec. and 156 sec. and 98 sec. and 0 sec. (2×) and 63 sec. and 30 sec. and 56 sec. and 116 sec. and 64 sec.
  Immobility Duration, Mean ± sem: 61 s

## N[C@H]1CC[C@@H](c2ccc(Cl)c(Cl)c2)c2ccccc21 [norsertraline, (1S,4S)-cis 4-(3,4-dichlorophenyl)-1,2,3,4-tetrahydro-1-naphthalenamine]
[5]
  neurological activity as stated in literature reports: neurologically inactive

## CNCCCC1c2ccccc2C=Cc2ccccc21 [protriptyline, reference compound]
[2]
  inhibition at 10 µM: < 50%
